How the values were obtained:
MMP12 = MMP12 (Homo sapiens, UniProt P39900); assay: MMP12 fluorogenic peptide biochemical assay
Source text: (§1) Source of enzymes for biochemical assays: Except for ADAM17 and MT1-MMP, all recombinant human MMPs and ADAMs were obtained from R&D Systems (Minneapolis, Minn.). […] MT1-MMP was obtained from US Biological (Swampscott, Mass.) with a catalog number of M2429. Porcine ADAM17 was purified in house from porcine spleen.
(§2) Substrates for biochemical assays: Fluorogenic Peptide substrate, (7-methoxycoumarin-4-yl)acetyl-Pro-Leu-Gly-Leu-(3-[2,4-dinitrophenyl]-L-2,3-diaminopropionyl)-Ala-Arg-NH2 (SEQ ID NO: 46), was obtained from R&D Systems (Minneapolis, Minn.) with a catalog number of ES001. It was used as substrate for MMP1, MMP2, MMP7, MMP8, MMP9, MMP12, MMP13, and MT1-MMP. Fluorogenic Peptide substrate, (7-methoxycoumarin-4-yl)acetyl-Arg-Pro-Lys-Pro-Val-Glu-Nva-Trp-Arg-Lys(2,4-dinitrophenyl)-NH2 (SEQ ID NO: 47), was obtained from R&D Systems with a catalog number of ES002. It was used as substrate for MMP3 and MMP10. […]
(§3) In general, 5 mM compound stock was prepared in DMSO. […] The plate was read on a plate reader with excitation of 320 nm and emission of 405 nm. Percentage of inhibition was calculated for each concentration and IC50 value was generated from curve fitting. […]

Her-2 sheddase = assay: Her-2 ECD ELISA of BT474 culture supernatants (Her-2 sheddase inhibition); type: cell-based, human
Experimental: BT474 cells were seeded in 100 μL of RPMI medium containing 10% FCS+10 μg/ml insulin in 96 well plates at 2×10^4 cells/well. The cells were incubated overnight at 37° C. The following morning, the media was removed and 100 μL of fresh media with or without compound was added back. The cells were incubated for about 72 hours at 37° C. After about 72 hours, the supernatants were removed. The samples were diluted 1:10 and analyzed using a commercially available Her-2 ELISA kit per manufacturer's instructions (Oncogene Research, catalog #QIA 10).
These inhibitors were added, at varying concentrations, to cultures of BT474 cells, a Her-2 overexpressing breast cancer cell line known to enzymatically process cell surface Her-2 (p185) and release the extracellular domain (ECD) into the culture supernatant, i.e., shedding of ECD. After 72 hours, cell culture supernatants were harvested and assayed for Her-2 ECD content using an ELISA assay.

BT474 cells = assay: Cell proliferation assay (cell counting, BrdU incorporation); type: cell-based, human; conditions: Her-2 overexpressing BT474 cells
Experimental: Proliferation assays were routinely performed with two protocols: cell counting and BrdU incorporation assay. For cell counting, cells (1×10^5) were seeded in each well of 12 well plates and cultured overnight. Then, cells were treated for 6 days with drugs and compounds as indicated in individual experiments. Culture media were replaced with fresh media containing the same concentrations of drugs and compounds after the first 3 days of treatment. Viable cells were counted with hemacytometers immediately after trypan blue staining.
The BrdU incorporation assay was performed using a colorimetric Cell Proliferation ELISA kit per manufacturer's instruction (#1647229, Roche Molecular Biochemicals), measuring DNA synthesis in proliferating cells. Briefly, cells (5−10×10^3) were seeded in each well of 96 well plates and cultured overnight. […] Finally, 100 μl/well of substrate solution was added and the results were obtained using a microplate reader (Spectra Max PLUS, Molecular Devices) during color development. Multiple readings at various time points were obtained and results in the linear range of the assay were obtained. […]
After varying periods of cell culture (2-6 days), the cell cultures were harvested and cell growth was assessed by cell count and BRdU incorporation using standard protocols.

MMP2 = molecular target: T1, MMP2 (Homo sapiens, UniProt P08253); assay: MMP2 fluorogenic peptide biochemical assay
T1 construct: purchased R&D Systems 902-MP
T1 sequence (P08253 110-660): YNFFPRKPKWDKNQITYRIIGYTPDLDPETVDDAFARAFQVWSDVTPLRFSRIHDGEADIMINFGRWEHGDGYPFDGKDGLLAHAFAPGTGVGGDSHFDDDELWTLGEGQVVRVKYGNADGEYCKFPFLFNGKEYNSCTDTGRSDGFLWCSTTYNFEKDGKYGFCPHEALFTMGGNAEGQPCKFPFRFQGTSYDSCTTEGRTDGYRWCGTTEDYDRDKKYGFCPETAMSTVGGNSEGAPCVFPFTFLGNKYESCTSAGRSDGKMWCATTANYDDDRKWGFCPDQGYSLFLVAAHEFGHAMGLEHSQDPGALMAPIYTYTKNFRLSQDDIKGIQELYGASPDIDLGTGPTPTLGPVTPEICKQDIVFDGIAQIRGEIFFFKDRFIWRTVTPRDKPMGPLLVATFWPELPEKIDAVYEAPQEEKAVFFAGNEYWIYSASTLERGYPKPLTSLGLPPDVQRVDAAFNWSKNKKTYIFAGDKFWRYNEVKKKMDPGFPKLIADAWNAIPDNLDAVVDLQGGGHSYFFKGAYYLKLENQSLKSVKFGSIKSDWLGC
Experimental: Biochemical Assays: In general, assay buffer conditions were chosen based on obtaining optimal enzymatic activities. The specific assay buffer conditions are summarized as following. For MMP1, MMP2, MMP3, MMP7, and MMP12, the assay buffer contains 50 mM Tricine, 10 mM NaCl, 10 mM CaCl2, 1.0 mM ZnCl2, pH 7.4.
To activate MMP enzymes, 10 or 20 μg of lyophilized Pro-MMPs are dissolved in 100 μL of water. 100 mM p-aminophenylmercuric acetate (APMA) stock in DMSO is added to Pro-MMPs to give 1.0 mM final concentration. Incubate enzyme with APMA at 37° C. for a period time specified below.

MMP3 = molecular target: T2, MMP3 (Homo sapiens, UniProt P08254); assay: MMP3 fluorogenic peptide biochemical assay
T2 construct: purchased R&D Systems 513-MP
Source text: as §1, §2, §3

T2 sequence (P08254 100-477): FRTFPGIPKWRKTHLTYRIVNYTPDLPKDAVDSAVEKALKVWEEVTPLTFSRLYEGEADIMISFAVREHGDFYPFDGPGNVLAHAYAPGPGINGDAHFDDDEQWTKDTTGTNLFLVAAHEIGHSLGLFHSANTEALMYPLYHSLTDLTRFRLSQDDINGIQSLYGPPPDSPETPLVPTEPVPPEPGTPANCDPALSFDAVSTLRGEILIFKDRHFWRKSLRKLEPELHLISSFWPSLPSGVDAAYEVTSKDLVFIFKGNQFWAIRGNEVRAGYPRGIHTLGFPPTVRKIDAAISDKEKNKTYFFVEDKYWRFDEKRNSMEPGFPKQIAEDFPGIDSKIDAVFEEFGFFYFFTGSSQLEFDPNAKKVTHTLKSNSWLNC
MMP12, sequence (P39900 106-470): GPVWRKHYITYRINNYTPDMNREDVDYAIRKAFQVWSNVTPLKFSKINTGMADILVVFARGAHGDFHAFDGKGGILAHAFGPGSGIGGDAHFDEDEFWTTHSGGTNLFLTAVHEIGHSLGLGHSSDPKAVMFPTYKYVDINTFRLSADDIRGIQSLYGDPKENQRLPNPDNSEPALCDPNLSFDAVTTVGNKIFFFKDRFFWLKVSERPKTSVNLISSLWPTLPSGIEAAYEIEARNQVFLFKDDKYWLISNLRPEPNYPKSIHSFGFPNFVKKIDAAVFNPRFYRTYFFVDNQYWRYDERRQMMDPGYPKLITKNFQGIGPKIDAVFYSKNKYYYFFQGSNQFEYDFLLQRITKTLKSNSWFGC

Cc1cc([N+](=O)[O-])ccc1N1CCN(C(=O)[C@@H]2[C@@H](C(=O)NO)CC3(CC3)CN2C)CC1 [Compound 5, (6S,7S)-N-hydroxy-5-methyl-6-{[4-(2-methyl-4-nitrophenyl)piperazin-1-yl]-carbonyl}-5-azaspiro[2.5]octane-7-carboxamide]
IC50 (MMP12): 584 nM | IC50 (Her-2 sheddase): 198 to 250 nM | effect on antiproliferative activity of a suboptimal dose of Herceptin (BT474 cells): synergistically enhances | MMP2 activity (MMP2): inactive | MMP3 activity (MMP3): inactive
